Activity calls are given as the source filed them. The rule behind the calls is not given here.
How the values were obtained:
[1] = Induction of apoptosis in gefitinib-insensitive human HCC827GR cells assessed as necrotic cells at 5 uM measured after 24 hrs by Annexin-V/propidium iodide staining-based flow cytometric analysis (reference value: 5.8%); assay type: functional
[2] = Half-life in Sprague-Dawley rat at 30 mg/kg, po measured upto 24 hrs by UPLC-MS/MS; assay type: ADME, organism-based; details: in vivo
NCI-H226 [3] = assay: Induction of apoptosis in human NCI-H226 cells assessed as late apoptotic cells at 1 uM measured after 24 hrs by Annexin-V/propidium iodide staining-based flow cytometric analysis (reference value: 2.8%); assay type: functional
[4] = target: Vascular endothelial growth factor receptor 3 (Homo sapiens) (UniProt P35916); assay: Inhibition of N-terminal GST tagged human FLT4 cytoplasmic domain (798 to 1298 AA) expressed in baculovirus at 10 uM using FAM-labelled peptide as substrate pre-incubated for 10 mins followed by substrate addition by mobility shift assay relative to control
[5] = target: CDK4/Cyclin D3 (Homo sapiens) (UniProt P11802+P30281); assay: Inhibition of N-terminal GST tagged truncated human CDK4 (1 to 303 AA) coexpressed with CyclinD3 (1 to 292 AA) in baculovirus at 10 uM using FAM-labelled peptide as substrate pre-incubated for 10 mins followed by substrate addition by mobility shift assay relative to control; assay type: protein-complex assay
Homo sapiens [6] = organism: Homo sapiens; assay: Inhibition of cell migration in gefitinib-insensitive human HCC827GR cells incubated upto 72 hrs by wound healing assay; assay type: functional
[7] = target: T1, Fibroblast growth factor receptor 1 (Homo sapiens, UniProt P11362); assay: Inhibition of FGFR in serum-starved human H520 cells assessed as reduction in FGFR-induced AKT phosphorylation upto 10 uM incubated for 1 hr by Western blot analysis
[8] = target: T2, Epidermal growth factor receptor (Homo sapiens, UniProt P00533); assay: Inhibition of EGFR in gefitinib-insensitive human HCC827GR cells assessed as reduction in EGF-induced EGFR phosphorylation upto 10 uM measured after 2 hrs by western blot analysis
[9] = target: T2, Epidermal growth factor receptor; assay: Inhibition of EGFR in serum-starved human HCC827 cells assessed as reduction in EGF-induced AKT phosphorylation upto 10 uM incubated for 1 hr by Western blot analysis; assay type: cell-based
Homo sapiens [10] = assay: Antitumor activity against human HCC827GR cells xenografted in BALB/c nude mouse assessed as reduction in tumor volume at 15 mg/kg, ip dosed measured every 2 days upto 25 days; assay type: functional, organism-based
NCI-H226 [11] = assay: Antiproliferative activity against human NCI-H226 cells incubated for 48 hrs by MTT assay; assay type: functional, cell-based; details: NCI-H226, 48 h
[12] = target: Mitogen-activated protein kinase 8 (Homo sapiens) (UniProt P45983); assay: Inhibition of human full length His-tagged JNK1 expressed in baculovirus expression system at 10 uM using FAM-labelled peptide as substrate pre-incubated for 10 mins followed by substrate addition by mobility shift assay relative to control
[13] = target: RAC-beta serine/threonine-protein kinase (Homo sapiens) (UniProt P31751); assay: Inhibition of N-terminal GST tagged human AKT2 catalytic domain (120 to 481 AA) expressed in baculovirus at 10 uM using FAM-labelled peptide as substrate pre-incubated for 10 mins followed by substrate addition by mobility shift assay relative to control
[14] = target: Mitogen-activated protein kinase 9 (Homo sapiens) (UniProt P45984); assay: Inhibition of human recombinant full length His-tagged JNK2 expressed in baculovirus expression system at 10 uM using FAM-labelled peptide as substrate pre-incubated for 10 mins followed by substrate addition by mobility shift assay relative to control
NCI-H520 = assay: Antiproliferative activity against human NCI-H520 cells assessed as inhibition of cell growth at 10 uM incubated for 48 hrs by MTT assay relative to control; assay type: functional; details: NCI-H520, 48 h
[15] = target: T1, Fibroblast growth factor receptor 1; assay: Inhibition of FGF-induced FGFR1 phosphorylation in serum-starved human H520 cells upto 10 uM incubated for 1 hr by Western blot analysis
[16] = Antitumor activity against human HCC827GR cells xenografted in BALB/c nude mouse assessed as reduction in tumor weight at 15 mg/kg, ip dosed every 2 days (reference value: 0.82 +/- 0.06 g); assay type: functional
[17] = target: Epidermal growth factor receptor (Homo sapiens, UniProt P00533, L858R); assay: Inhibition of recombinant human EGFR L858R mutant expressed in baculovirus using FAM-labelled peptide as substrate pre-incubated for 10 mins followed by substrate addition by mobility shift assay
[18] = target: T1, Fibroblast growth factor receptor 1; assay: Inhibition of N-terminal GST-tagged human FGFR1 cytoplasmic domain (398-822 AA) expressed in baculovirus at 10 uM using FAM-labelled peptide as substrate pre-incubated for 10 mins followed by substrate addition by mobility shift assay relative to control
[19] = Induction of apoptosis in gefitinib-insensitive human HCC827GR cells assessed as viable cells at 2.5 uM measured after 24 hrs by Annexin-V/propidium iodide staining-based flow cytometric analysis (reference value: 90.8%); assay type: functional; details: read-out: Activity
[20] = target: CDK7/Cyclin H/MNAT1 (Homo sapiens) (UniProt P51946+P50613+P51948); assay: Inhibition of full length N-terminal GST-tagged human CDK7 (1 to 346 AA) coexpressed with CyclinH (1 to 323 AA)and MAT1 (1 to 309) in baculovirus at 10 uM using FAM-labelled peptide as substrate pre-incubated for 10 mins followed by substrate addition by mobility shift assay relative to control; assay type: protein-complex assay
[21] = target: CDK2/Cyclin A2 (Homo sapiens) (UniProt P24941+P20248); assay: Inhibition of CDK2/cyclin A2 (unknown origin) at 10 uM using FAM-labelled peptide as substrate pre-incubated for 10 mins followed by substrate addition by mobility shift assay relative to control; assay type: protein-complex assay
[22] = target: T2, Epidermal growth factor receptor; assay: Inhibition of EGFR in gefitinib-insensitive human HCC827GR cells assessed as reduction in EGF-induced Akt phosphorylation upto 10 uM measured after 2 hrs by western blot analysis
NCI-H226 [23] = assay: Induction of apoptosis in human NCI-H226 cells assessed as necrotic cells at 1 uM measured after 24 hrs by Annexin-V/propidium iodide staining-based flow cytometric analysis (reference value: 3%); assay type: functional
[24] = target: Tyrosine-protein kinase JAK2 (Homo sapiens) (UniProt O60674); assay: Inhibition of N-terminal GST tagged human JAK2 catalytic domain (826 to 1132 AA) expressed in baculovirus at 10 uM using FAM-labelled peptide as substrate pre-incubated for 10 mins followed by substrate addition by mobility shift assay relative to control
[25] = target: T2, Epidermal growth factor receptor; assay: Inhibition of EGF-induced EGFR phosphorylation in serum-starved human HCC827 cells upto 10 uM incubated for 1 hr by Western blot analysis; assay type: cell-based
[26] = Induction of apoptosis in gefitinib-insensitive human HCC827GR cells assessed as late apoptotic cells at 2.5 uM measured after 24 hrs by Annexin-V/propidium iodide staining-based flow cytometric analysis (reference value: 1.5%); assay type: functional
HCC827 = assay: Antiproliferative activity against human HCC827 cells assessed as inhibition of cell growth at 10 uM incubated for 48 hrs by MTT assay relative to control; assay type: functional; details: HCC827, 48 h

T2 sequence (P00533 whole entry): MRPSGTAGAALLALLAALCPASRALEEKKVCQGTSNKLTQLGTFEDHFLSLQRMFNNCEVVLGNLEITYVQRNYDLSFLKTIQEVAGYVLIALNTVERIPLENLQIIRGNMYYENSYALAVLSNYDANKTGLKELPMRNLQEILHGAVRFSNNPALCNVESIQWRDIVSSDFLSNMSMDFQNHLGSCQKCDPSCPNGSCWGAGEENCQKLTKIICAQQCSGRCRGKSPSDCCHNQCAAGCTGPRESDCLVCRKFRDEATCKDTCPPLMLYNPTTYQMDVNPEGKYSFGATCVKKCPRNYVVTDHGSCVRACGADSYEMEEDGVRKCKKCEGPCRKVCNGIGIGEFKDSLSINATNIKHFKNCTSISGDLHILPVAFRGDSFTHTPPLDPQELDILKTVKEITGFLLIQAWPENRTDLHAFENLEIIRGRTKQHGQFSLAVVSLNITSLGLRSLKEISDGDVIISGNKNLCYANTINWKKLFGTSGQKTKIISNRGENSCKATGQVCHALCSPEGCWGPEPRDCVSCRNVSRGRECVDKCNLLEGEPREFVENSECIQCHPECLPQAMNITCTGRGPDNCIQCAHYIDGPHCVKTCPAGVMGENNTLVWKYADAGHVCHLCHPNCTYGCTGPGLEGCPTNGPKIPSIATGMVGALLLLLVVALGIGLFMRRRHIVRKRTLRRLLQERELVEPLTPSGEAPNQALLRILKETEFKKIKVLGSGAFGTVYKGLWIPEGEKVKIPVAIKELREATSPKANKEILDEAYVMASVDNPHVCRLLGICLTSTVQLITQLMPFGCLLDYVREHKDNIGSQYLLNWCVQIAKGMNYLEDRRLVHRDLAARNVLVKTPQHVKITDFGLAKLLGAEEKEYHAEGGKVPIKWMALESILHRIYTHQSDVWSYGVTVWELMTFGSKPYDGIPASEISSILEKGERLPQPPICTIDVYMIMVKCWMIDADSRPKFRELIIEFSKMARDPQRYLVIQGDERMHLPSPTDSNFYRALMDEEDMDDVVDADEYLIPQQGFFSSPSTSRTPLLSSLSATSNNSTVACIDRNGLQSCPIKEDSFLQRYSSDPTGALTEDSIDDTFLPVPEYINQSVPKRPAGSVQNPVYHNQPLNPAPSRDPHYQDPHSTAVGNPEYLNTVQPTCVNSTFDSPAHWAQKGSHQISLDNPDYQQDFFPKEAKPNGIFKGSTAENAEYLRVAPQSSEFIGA
T1 sequence (P11362 22-822 limits assumed): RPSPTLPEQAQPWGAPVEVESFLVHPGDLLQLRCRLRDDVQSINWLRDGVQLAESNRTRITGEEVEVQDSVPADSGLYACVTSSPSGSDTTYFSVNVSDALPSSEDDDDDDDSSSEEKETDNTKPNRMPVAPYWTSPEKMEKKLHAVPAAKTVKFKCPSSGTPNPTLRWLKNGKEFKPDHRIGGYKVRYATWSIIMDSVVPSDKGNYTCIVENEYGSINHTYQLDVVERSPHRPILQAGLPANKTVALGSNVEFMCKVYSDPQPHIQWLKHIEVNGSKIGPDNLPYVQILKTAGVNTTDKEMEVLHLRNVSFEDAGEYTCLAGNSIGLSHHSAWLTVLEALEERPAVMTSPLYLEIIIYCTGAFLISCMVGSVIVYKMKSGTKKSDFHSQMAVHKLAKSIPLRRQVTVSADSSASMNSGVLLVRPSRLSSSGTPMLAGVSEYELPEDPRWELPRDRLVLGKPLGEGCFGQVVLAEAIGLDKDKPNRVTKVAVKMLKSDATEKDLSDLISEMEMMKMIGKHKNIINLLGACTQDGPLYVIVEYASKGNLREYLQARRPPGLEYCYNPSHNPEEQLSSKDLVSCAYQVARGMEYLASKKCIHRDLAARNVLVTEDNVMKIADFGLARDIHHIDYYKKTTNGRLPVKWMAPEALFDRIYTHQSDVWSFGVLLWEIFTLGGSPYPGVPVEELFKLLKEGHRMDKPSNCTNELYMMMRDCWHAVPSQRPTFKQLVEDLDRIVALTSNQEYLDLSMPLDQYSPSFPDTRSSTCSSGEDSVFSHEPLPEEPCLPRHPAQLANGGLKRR
Sequence of Mitogen-activated protein kinase 9 (Homo sapiens) (P45984 whole entry, looked up): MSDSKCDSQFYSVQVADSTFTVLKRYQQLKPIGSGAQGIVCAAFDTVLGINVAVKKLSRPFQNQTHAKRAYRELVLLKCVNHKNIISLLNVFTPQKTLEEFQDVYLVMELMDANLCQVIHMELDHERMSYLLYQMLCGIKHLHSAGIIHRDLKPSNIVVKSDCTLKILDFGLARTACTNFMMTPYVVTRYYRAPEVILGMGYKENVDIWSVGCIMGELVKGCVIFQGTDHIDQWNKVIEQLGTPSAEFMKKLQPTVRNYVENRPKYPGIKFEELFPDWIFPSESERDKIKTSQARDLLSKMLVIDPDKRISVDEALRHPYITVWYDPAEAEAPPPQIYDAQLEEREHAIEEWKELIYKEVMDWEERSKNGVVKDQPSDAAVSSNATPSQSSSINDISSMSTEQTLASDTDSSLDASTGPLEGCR
Sequence of RAC-beta serine/threonine-protein kinase (Homo sapiens) (P31751 whole entry, the tested form may be a part): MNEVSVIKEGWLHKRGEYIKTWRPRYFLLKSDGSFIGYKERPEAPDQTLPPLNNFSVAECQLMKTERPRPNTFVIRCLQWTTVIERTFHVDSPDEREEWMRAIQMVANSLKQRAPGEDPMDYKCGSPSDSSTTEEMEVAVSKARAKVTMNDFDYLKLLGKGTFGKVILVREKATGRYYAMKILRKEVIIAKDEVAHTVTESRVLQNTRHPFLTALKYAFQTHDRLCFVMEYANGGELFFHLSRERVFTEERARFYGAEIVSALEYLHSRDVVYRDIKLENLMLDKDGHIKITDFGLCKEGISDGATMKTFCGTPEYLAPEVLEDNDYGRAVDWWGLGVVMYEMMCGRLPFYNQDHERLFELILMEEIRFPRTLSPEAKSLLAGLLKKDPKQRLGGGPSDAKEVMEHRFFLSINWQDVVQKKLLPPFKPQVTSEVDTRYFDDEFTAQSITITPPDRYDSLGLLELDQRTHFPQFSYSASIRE
Sequence of Vascular endothelial growth factor receptor 3 (Homo sapiens) (P35916 whole entry, the tested form may be a part): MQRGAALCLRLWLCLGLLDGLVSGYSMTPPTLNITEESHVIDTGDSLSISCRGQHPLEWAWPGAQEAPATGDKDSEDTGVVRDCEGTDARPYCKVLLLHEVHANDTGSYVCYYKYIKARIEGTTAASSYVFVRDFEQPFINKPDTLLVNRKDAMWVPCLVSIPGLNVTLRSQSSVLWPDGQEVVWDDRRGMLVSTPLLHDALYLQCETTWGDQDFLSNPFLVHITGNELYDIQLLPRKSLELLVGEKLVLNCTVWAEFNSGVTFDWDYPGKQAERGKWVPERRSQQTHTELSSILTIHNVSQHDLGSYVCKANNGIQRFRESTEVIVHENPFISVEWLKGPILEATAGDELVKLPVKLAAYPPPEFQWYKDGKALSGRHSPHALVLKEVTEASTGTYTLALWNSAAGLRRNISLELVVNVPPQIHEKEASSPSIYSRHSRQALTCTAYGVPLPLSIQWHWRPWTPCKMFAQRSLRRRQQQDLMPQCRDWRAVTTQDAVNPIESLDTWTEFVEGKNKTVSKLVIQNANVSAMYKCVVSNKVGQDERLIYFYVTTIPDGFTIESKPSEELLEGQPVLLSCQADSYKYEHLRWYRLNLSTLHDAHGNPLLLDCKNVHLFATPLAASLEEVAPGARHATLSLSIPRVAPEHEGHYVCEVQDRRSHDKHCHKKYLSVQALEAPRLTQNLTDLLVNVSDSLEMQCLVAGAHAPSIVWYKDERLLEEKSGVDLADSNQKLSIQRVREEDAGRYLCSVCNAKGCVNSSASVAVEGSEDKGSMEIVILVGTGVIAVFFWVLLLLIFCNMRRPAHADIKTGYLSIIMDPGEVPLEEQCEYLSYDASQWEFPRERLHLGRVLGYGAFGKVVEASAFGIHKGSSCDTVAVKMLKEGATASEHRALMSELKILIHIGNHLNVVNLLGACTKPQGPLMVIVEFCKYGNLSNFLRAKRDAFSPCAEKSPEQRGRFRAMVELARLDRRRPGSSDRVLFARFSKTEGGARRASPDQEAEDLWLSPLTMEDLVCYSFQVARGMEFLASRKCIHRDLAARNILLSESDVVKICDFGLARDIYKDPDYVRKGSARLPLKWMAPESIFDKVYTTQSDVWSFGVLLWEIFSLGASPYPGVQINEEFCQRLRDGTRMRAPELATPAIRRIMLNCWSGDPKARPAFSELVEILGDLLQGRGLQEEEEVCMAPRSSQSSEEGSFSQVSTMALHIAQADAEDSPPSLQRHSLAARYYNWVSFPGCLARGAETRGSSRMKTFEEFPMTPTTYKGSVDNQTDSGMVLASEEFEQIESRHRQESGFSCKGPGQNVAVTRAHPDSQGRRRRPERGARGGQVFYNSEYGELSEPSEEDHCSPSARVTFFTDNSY
Sequence of Mitogen-activated protein kinase 8 (Homo sapiens) (P45983 whole entry, the tested form may be a part): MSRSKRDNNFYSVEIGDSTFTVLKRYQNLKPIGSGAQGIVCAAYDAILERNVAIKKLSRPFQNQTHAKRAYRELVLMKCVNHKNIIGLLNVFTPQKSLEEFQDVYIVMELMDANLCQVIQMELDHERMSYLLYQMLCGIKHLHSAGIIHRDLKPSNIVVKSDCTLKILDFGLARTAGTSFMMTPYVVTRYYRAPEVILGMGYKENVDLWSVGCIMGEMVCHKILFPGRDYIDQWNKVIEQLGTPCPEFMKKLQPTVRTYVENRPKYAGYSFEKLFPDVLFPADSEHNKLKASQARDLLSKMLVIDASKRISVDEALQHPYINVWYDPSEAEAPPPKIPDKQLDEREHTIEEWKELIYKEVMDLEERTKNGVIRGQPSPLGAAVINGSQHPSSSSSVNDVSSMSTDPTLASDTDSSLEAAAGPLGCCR

Structure (SMILES): COc1ccc(OC)c(Nc2cc(NC(=O)Nc3c(Cl)cccc3Cl)ncn2)c1
- Activity [1]: 4.1%
- half-life [2]: 7.07 h
- Activity (NCI-H226 [3]): 3.5%
- inhibition [4]: 43.6%
- inhibition [5]: 12.5%
- inhibition (Homo sapiens [6]): Dose-dependent effect
- inhibition [7]: Active
- inhibition [8]: Active
- inhibition [9]: Active
- Activity (Homo sapiens [10]): Active
- IC50 (NCI-H226 [11]): 2260 nM
- inhibition [12]: 3.79%
- inhibition [13]: 12.7%
- inhibition [14]: 0.85%
- inhibition at 10 µM (NCI-H520): 74%
- inhibition [15]: Active
- Activity [16]: 0.41 g
- IC50 [17]: 39 nM
- inhibition [18]: 88.5%
- viability at 2.5 µM [19]: 79.5%
- inhibition [20]: 22.3%
- inhibition [21]: 4.4%
- inhibition [22]: Active
- Activity (NCI-H226 [23]): 5.8%
- inhibition [24]: 13.9%
- inhibition [25]: Active
- Activity [26]: 13.5%
- inhibition at 10 µM (HCC827): 94%

Source: ChEMBL document CHEMBL4414679, “Discovery of 4,6-pyrimidinediamine derivatives as novel dual EGFR/FGFR inhibitors aimed EGFR/FGFR1-positive NSCLC” (Eur J Med Chem, 2020)
